Patent publication US20050288347A1, “Certain triazole-based compounds, compositions, and uses thereof” (priority 2004, published 2005)
“Also recorded” adds a separate entry of the source.

Target: protein kinase
Assay: HTS ATP-utilizing enzyme assay, off-chip mobility-shift format (Caliper HTS 250)
Type: biochemical, human
Settings: kinase(s) for which the compound exhibits protein kinase inhibitory activity; test compound 10 μM; active = greater than three-sigma from the mean activity of inactive compounds
Outline: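 Kinase reactions ran 2.5 h at 20 to 22 °C with test compound at 10 μM, in a HEPES pH 7.5 master buffer containing Triton X-100 and BSA. Peptide substrate and phosphorylated product separated by mobility shift; inhibition normalized to DMSO (0%) and EDTA (100%) controls, with three-sigma thresholds for hits.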

Kinase	SMILES
FYN	Cc1ccc(-n2c(SCC(=O)N3CCCCC3)nnc2-c2ccncc2)cc1
GSK3-α and GSK3-β and PAK2	NC(=O)c1c(NC(=O)CSc2nnc(-c3ccccc3)n2Cc2ccco2)sc2c1CCC2
AKT1	COCCn1c(SCC(=O)O)nnc1-c1cc2c(C)nn(-c3ccccc3)c2s1
FYN	COc1ccc(NCc2nnc(SCC#N)n2-c2ccccc2OC)cc1
AURORA-A	COc1ccccc1-n1c(SCC(=O)O)nnc1-c1cccnc1
PDGFRR-α and PAK2	CN(C)CCCn1c(SCC(=O)NCc2ccco2)nnc1-c1ccncc1
PDGFRR-α and FYN	CCOc1ccc(NCc2nnc(SCC#N)n2-c2cccc(Cl)c2)cc1
LYNA	Cc1cc(C)nc(SCc2nnc(SCC#N)n2-c2cccc(Cl)c2)n1
MAPKAPK-2 and CDK1	COc1ccc(-n2c(COc3cccc4ccccc34)nnc2SCC#N)cc1
AURORA-A	COc1ccc(-n2c(SCC#N)nnc2-c2cccnc2)cc1
AURORA-A	COc1ccc(-n2c(SCC(=O)O)nnc2-c2cccnc2)cc1
FYN	C=CCn1c(SCC(=O)Nc2cccc([N+](=O)[O-])c2)nnc1-c1ccncc1
DAPK1	CC(Sc1nnc(CNc2ccc(Cl)cc2)n1Cc1ccccc1)C(=O)O (stereo not shown)
MSK1	N#CCSc1nnc(CNc2ccc(Cl)cc2)n1Cc1ccccc1
DAPK1	O=C(O)CSc1nnc(CNc2ccc(F)cc2)n1Cc1ccccc1
GSK3-β and AKT1 and GSK3-α	NC(=O)CSc1nnc(CNc2ccc(F)cc2)n1Cc1ccccc1
CDK1 and CHEK2	N#CCSc1nnc(COc2cccc3ccccc23)n1Cc1ccccc1
FYN	CCn1c(SCC(=O)Nc2nc(C)cs2)nnc1-c1ccc(S(=O)(=O)N2CCN(C)CC2)cc1
AURORA-A	CCn1c(SCC#N)nnc1-c1ccc(S(=O)(=O)N2CCOCC2)cc1
CDK1	CCn1c(SCC(=O)O)nnc1-c1ccc(S(=O)(=O)N2CCOCC2)cc1
CDK2 and CDK1 and CHEK2	CCn1c(CNc2cccc(C(F)(F)F)c2)nnc1SCC#N
AKT1	CCn1c(COc2ccc(OC)cc2)nnc1SCC(=O)O
AURORA-A	CCn1c(COc2cccc3ccccc23)nnc1SCC#N

Kinase	SMILES
FYN	CCn1c(COc2cccc(C)c2)nnc1SCC(=O)N1CCCCC1
FYN	CCn1c(SCC(=O)NCc2ccco2)nnc1-c1ccccc1
AURORA-A	Cn1c(SCC(=O)N2CCCC2)nnc1-c1ccc(S(=O)(=O)N2CCOCC2)cc1
FYN	Cn1c(CNc2nc(-c3ccccc3)cs2)nnc1SCC(N)=O
FYN	Cn1c(COc2ccc3ccccc3c2)nnc1SCC(N)=O
AURORA-A	NC(=O)CSc1nnc(-c2ccc(NS(=O)(=O)c3ccccc3)cc2)n1-c1ccccc1
MAPKAPK-2	NC(=O)CSc1nnc(COc2cccc3cccnc23)n1-c1ccccc1
FYN and PRAK	CC(C)N(C(=O)CSc1nnc(-c2ccccc2N)n1C)C(C)C
AURORA-A	COc1ccccc1-n1c(SCC#N)nnc1-c1ccccc1O
GSK3-β; also recorded: AURORA-A	O=C(CSc1nnc(-c2ccc(O)cc2)n1CC1CCCO1)Nc1nc2c(s1)CCCC2 (stereo not shown)
MSK1	C=C(C)Cn1c(SCC(=O)O)nnc1-c1ccc(OC)cc1
PDK1 and SYK and INSR	COc1ccc(-c2nnc(SCC(=O)N(C)C)n2-c2ccccc2)cc1
PRAK and CHEK2	COc1ccc(-c2nnc(SCC(=O)Nc3ccccc3)n2-c2ccccc2)cc1
INSR and PRAK	COc1ccc(-c2nnc(SCC(=O)N3CCOCC3)n2-c2ccccc2)cc1
SYK and PRAK	CNC(=O)CSc1nnc(-c2ccc(OC)cc2)n1-c1ccccc1
FYN	Cn1c(Cn2cnc3ccccc32)nnc1SCC(=O)Nc1ccccc1Cl
CDK1	COc1ccc(-n2c(CNc3cc(C(F)(F)F)ccc3Cl)nnc2SCC#N)cc1
PDGFRR-α	Cc1ccc(NCc2nnc(SCC(N)=O)n2Cc2ccco2)c(C)c1
AKT1	Cc1ccc(NCc2nnc(SCC#N)n2-c2ccccc2)c(C)c1
AURORA-A	Cc1ccc(NCc2nnc(SCC#N)n2-c2ccccc2)cc1Cl
CDK2-cyclinA	CCn1c(CNc2cccc(Cl)c2)nnc1SCC#N
CDK2-cyclinA	CCn1c(CNc2cccc(Cl)c2)nnc1SCC(=O)O
AURORA-A	Cn1c(CNc2cccc(Cl)c2)nnc1SCC#N

Kinase	SMILES
FYN	CCn1c(COc2ccc(Cl)c(C)c2)nnc1SCC(=O)N1CCCCC1
AURORA-A	CCn1c(COc2ccc(Cl)c(C)c2)nnc1SCC#N
LYNA and DYRK2	CCn1c(CNc2ccc(Cl)cc2)nnc1SCC#N
FYN	CCOc1ccc(NCc2nnc(SCC#N)n2-c2ccc(C)cc2)cc1
FYN	CCOc1ccc(NCc2nnc(SCC(=O)O)n2-c2ccc(C)cc2)cc1
FYN and PDGFRR-α and FLT-3	CCOc1ccc(NCc2nnc(SCC(N)=O)n2-c2ccccc2)cc1
PDGFRR-α	COc1ccc(OCc2nnc(SC(C)C(=O)Nc3ccccc3C)n2C)cc1 (stereo not shown)
FYN	COc1ccc(NCc2nnc(SCC(=O)O)n2-c2ccc(C)cc2)cc1
FYN and PDGFRR-α and AURORA-A	COc1ccc(NCc2nnc(SCC#N)n2-c2ccc(C)cc2)cc1
AKT1	Cc1ccc(-n2c(COc3cccc4ccccc34)nnc2SC(C)C(=O)O)cc1 (stereo not shown)
MAPKAPK-2 and CDK1 and CDK5	N#CCSc1nnc(COc2cccc3ccccc23)n1-c1ccccc1
PDGFRR-α and CDK1	Cc1ccc(NCc2nnc(SCC#N)n2-c2ccc(Cl)cc2)cc1
PDGFRR-α	COc1ccc(-n2c(CNc3ccc(C)cc3)nnc2SCC(=O)O)cc1
AURORA-A	O=C(O)CSc1nnc(-c2ccco2)n1CC1CCCO1 (stereo not shown)
GSK3-β; also recorded: GSK3-α	Cc1nc(NC(=O)CSc2nnc(C3CC3)n2C)sc1C
CDK2-cyclinE	Cn1c(SCC(=O)Nc2nc3c(s2)CCCC3)nnc1C1CC1
GSK3-α	O=C(O)c1ccc(-n2c(S)nnc2-c2cc(C3CC3)n[nH]2)cc1
GSK3-α; also recorded: GSK3-β	COc1ccc(-n2c(S)nnc2CNc2cccc(C(F)(F)F)c2)cc1
PDGFRR-α and FYN	CCN(CC)S(=O)(=O)c1ccc(-c2nnc(SCC(=O)N3C(C)CCCC3C)n2CC)cc1 (stereo not shown)
GSK3-α	FC(F)(F)c1cccc(NCc2nnc(S)n2-c2ccccc2)c1
INSR and SYK	COc1ccc(-c2nnc(SCC(=O)Nc3ccccc3Cl)n2-c2ccccc2)cc1
PRAK and CHEK2 and PKA	COc1ccc(-c2nnc(SCC(=O)Nc3cccc(NC(=O)c4ccco4)c3)n2-c2ccccc2)cc1
PRAK and CHEK2 and PKA	COc1ccc(-c2nnc(SCC(=O)Nc3cccc(NC(=O)C4CCCO4)c3)n2-c2ccccc2)cc1 (stereo not shown)

Kinase	SMILES
PRAK and CHEK2 and AURORA-A	COc1ccc(-c2nnc(SCC(=O)Nc3cccc(Cl)c3)n2-c2ccccc2)cc1
DYRK2; also recorded: CDK2-cyclinE	COc1ccc(NCc2nnc(SCC(=O)Nc3sc4c(c3C#N)CCCC4)n2C)cc1
CHEK2	Cn1c(SCC(=O)NCc2ccco2)nnc1-c1ccc(NC(=O)c2ccccc2)cc1
CHEK2 and AKT1	COc1ccc(-n2c(SCC#N)nnc2-c2ccc(NC(=O)c3ccccc3)cc2)cc1
CDK2-cyclinA and CDK1 and CDK2-cyclinE	COc1ccc(-n2c(SCC#N)nnc2-c2ccc(NS(=O)(=O)c3ccc(C)cc3)cc2)cc1
FYN	COCCn1c(SCC(=O)Nc2ccc(F)cc2)nnc1-c1ccncc1
GSK3-β; also recorded: AURORA-A	Cc1nc(NC(=O)CSc2nnc(-c3cccnc3)n2Cc2ccco2)sc1C
PDGFRR-α	CCc1nnc(NC(=O)CSc2nnc(-c3ccc(NS(=O)(=O)c4ccc(C)cc4)cc3)n2C)s1
GSK3-β; also recorded: GSK3-α	CCc1nnc(NC(=O)CSc2nnc(-c3ccc(O)cc3)n2C)s1
AKT3	COc1ccc(-c2nnc(SCC(=O)NCC3CCCCC3)n2-c2ccccc2)cc1
FYN	COCCCn1c(C)nnc1SCC(=O)NCc1ccco1
FYN	O=C(CSc1nnc(-c2ccncc2)n1Cc1ccco1)NCc1ccco1
PDGFRR-α and PKA	Cn1c(CNc2nc(-c3ccccc3)cs2)nnc1SCC(=O)NCc1ccccc1
AURORA-A	COc1cccc(-n2c(SCC(=O)NC(C)(C)C)nnc2-c2cccnc2)c1
KIT	COc1ccccc1-n1c(SCC(=O)OCc2ccccc2)nnc1-c1ccccc1O
GSK3-α; also recorded: GSK3-β	O=C(CSc1nnc(-c2ccc(O)cc2)n1Cc1ccccc1)OC1CCCCC1
GSK3-α	Cn1c(SCC(=O)OC2CCCCC2)nnc1-c1ccc(O)cc1
FYN and GSK3-α	CCOC(=O)CN(C(=O)CSc1nnc(-c2ccncc2)n1Cc1ccco1)c1cccc([N+](=O)[O-])c1
CSK	CCOC(=O)CSc1nnc(CSc2nc3ccccc3s2)n1C
FYN	CCOC(=O)c1ccc(NC(=O)CSc2nnc(COc3ccc(OC)cc3)n2CC)cc1
GSK3-β; also recorded: GSK3-α	COCCn1c(SCC(=O)Nc2ccccc2C(=O)OC)nnc1-c1ccncc1

SMILES	Kinase
Cn1c(COc2ccc([N+](=O)[O-])cc2)nnc1SCC(=O)Nc1sc2c(c1C(N)=O)CCCC2	GSK3-β; also recorded: GSK3-α; also recorded: AURORA-A
Cc1ccc(C)c(-n2c(SCC(N)=O)nnc2-c2ccc(O)cc2)c1	GSK3-β; also recorded: GSK3-α; also recorded: CDK2-cyclinE
N#CCSc1nnc(-c2ccc(O)cc2)n1Cc1ccco1	GSK3-β; also recorded: GSK3-α; also recorded: AURORA-A
Cn1c(Cn2nnc3ccccc32)nnc1SCC(=O)Nc1nccs1	GSK3-β; also recorded: GSK3-α; also recorded: CDK2-cyclinE
COc1ccccc1OCc1nnc(S)n1Cc1ccco1	AURORA-A; also recorded: GSK3-β; also recorded: GSK3-α
Cc1ccc(NCc2nnc(S)n2-c2ccccc2)cc1Cl	GSK3-β; also recorded: GSK3-α; also recorded: AURORA-A
Cn1c(SCC(=O)Nc2cccc(NC(=O)c3ccco3)c2)nnc1-c1ccncc1	GSK3-β; also recorded: AURORA-A; also recorded: GSK3-α
